Values after ≈ are worked out from the molar mass of the structure shown. Square brackets hold non-standard residues; d marks the D form. Peptide text beside a SMILES is read from it. Nspe = C[C@H](NCC(=O)O)c1ccccc1; Nlys = NCCCCNCC(=O)O

For 1 molecule, MIC results are on record in PMC4744035, “In Vivo, In Vitro, and In Silico Characterization of Peptoids as Antimicrobial Agents” (PLoS ONE, 2016).

What all share (assay): microbe, parasite or virus in culture
One experiment deals with E. coli 64771 (ESBL). To be noted: E. coli 64771 (ESBL). Summed up:
(§1)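 Growth inhibition is determined by modified microdilution in Mueller Hinton broth, with peptoids prepared in 0.01% acetic acid containing 0.2% bovine serum albumin. Final inoculum is 2–7 x 10^5 CFU/mL; endpoint is absence of growth after overnight 37°C.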

For a further experiment, the system named is E. faecalis W61950 (VRE). The conditions noted are these: E. faecalis W61950 (VRE). An outline of the steps:
as §1

Experiment [1] has as its system P. aeruginosa H103 (wild type). To be noted: P. aeruginosa H103 (wild type). Summed up: as §1
For another experiment, the system named is E. coli 63103 (ESBL). To be noted: E. coli 63103 (ESBL). Summed up:
as §1

In experiment [2] the test system is P. aeruginosa LES400 (MDR). The conditions noted are these: P. aeruginosa LES400 (MDR). An outline of the steps:
as §1

A further experiment deals with P. maltophilia ATCC13637. The conditions noted are these: P. maltophilia ATCC13637. Summed up:
as §1

The next experiment has as its system E. faecium mic80 (VRE). The conditions noted are these: E. faecium mic80 (VRE). Summed up: as §1
In the next experiment the test system is S. aureus ATCC25923. To be noted: S. aureus ATCC25923. Summed up:
as §1

For the next experiment, the system named is S. aureus C623 (MRSA). The conditions noted are these: S. aureus C623 (MRSA). An outline of the steps: as §1
Experiment [3] relates to E. cloacae 218R Class C β-lactamase. The conditions noted are these: E. cloacae 218R Class C β-lactamase. Summed up:
as §1

The test system of the next experiment is P. aeruginosa 198 (MDR). The conditions noted are these: P. aeruginosa 198 (MDR). An outline of the steps: as §1
A further experiment relates to E. faecalis F43559 (VRE). To be noted: E. faecalis F43559 (VRE). Summed up:
as §1

As to `C[C@@H](c1ccccc1)N(CC(N)=O)C(=O)CN(C(=O)CN(CCCCN)C(=O)CN(C(=O)CN(C(=O)CN(CCCCN)C(=O)CN(C(=O)CN(C(=O)CN(CCCCN)C(=O)CN(C(=O)CN(C(=O)CNCCCCN)[C@@H](C)c1ccccc1)[C@@H](C)c1ccccc1)[C@@H](C)c1ccccc1)[C@@H](C)c1ccccc1)[C@@H](C)c1ccccc1)[C@@H](C)c1ccccc1)[C@@H](C)c1ccccc1` [Peptoid 1, H-(NLys-Nspe-Nspe)4-NH2] (H-[Nlys][Nspe][Nspe][Nlys][Nspe][Nspe][Nlys][Nspe][Nspe][Nlys][Nspe][Nspe]-NH2), the MIC against E. coli 64771 (ESBL) was 2 µg/mL (≈ 1.1 µM); against E. faecalis W61950 (VRE), 8 µg/mL (≈ 4.4 µM); in experiment [1], 2 µg/mL (≈ 1.1 µM); in the experiment with E. coli 63103 (ESBL) it was 2 µg/mL (≈ 1.1 µM); in experiment [2], 2 µg/mL (≈ 1.1 µM); with P. maltophilia ATCC13637, 2 µg/mL (≈ 1.1 µM). Also, the MIC against E. faecium mic80 (VRE) amounted to 2 µg/mL (≈ 1.1 µM); against S. aureus ATCC25923, 2 µg/mL (≈ 1.1 µM); in the experiment on S. aureus C623 (MRSA) it was 2 µg/mL (≈ 1.1 µM); in experiment [3] it was 2 µg/mL (≈ 1.1 µM); against P. aeruginosa 198 (MDR), 4 µg/mL (≈ 2.2 µM); against E. faecalis F43559 (VRE), 4 µg/mL (≈ 2.2 µM).
